Laboratory results from article PMC6704710, “Preclinical evaluation of 3D185, a novel potent inhibitor of FGFR1/2/3 and CSF-1R, in FGFR-dependent and macrophage-dominant cancer models” (Journal of Experimental & Clinical Cancer Research : CR, 2019).

Tests used:
Experiment in all cases: Eurofins kinase panel
Assay type in all cases: biochemical
Details in all cases: read-out: Inhibition rate (%)
[1] = biological target: T1, GRK3(h) (Homo sapiens, UniProt P35626)
T1 construct: purchased Eurofins (KinaseProfiler)
T1 sequence (P35626 1-688): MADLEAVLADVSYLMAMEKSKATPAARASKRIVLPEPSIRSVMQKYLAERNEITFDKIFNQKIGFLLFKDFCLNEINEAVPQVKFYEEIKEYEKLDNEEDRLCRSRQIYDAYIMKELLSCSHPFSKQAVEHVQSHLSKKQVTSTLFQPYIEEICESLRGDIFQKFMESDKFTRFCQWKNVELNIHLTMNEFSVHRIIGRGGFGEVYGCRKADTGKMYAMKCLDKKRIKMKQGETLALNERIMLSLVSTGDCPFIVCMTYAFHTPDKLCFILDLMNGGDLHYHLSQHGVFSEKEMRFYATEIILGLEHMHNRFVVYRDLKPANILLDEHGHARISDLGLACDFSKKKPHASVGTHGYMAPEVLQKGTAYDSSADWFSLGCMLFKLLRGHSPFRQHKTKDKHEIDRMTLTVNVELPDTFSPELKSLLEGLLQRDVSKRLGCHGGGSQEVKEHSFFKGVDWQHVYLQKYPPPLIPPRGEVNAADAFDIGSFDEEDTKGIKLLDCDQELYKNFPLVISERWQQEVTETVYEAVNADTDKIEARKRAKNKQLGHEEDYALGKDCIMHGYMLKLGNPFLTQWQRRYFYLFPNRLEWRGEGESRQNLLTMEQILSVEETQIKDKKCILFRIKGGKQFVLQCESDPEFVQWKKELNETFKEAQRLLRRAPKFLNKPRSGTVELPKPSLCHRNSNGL

[2] = biological target: T2, MYO3B(h) (Homo sapiens, UniProt Q8WXR4)
T2 construct: purchased Eurofins (KinaseProfiler)
T2 sequence (Q8WXR4 1-1341): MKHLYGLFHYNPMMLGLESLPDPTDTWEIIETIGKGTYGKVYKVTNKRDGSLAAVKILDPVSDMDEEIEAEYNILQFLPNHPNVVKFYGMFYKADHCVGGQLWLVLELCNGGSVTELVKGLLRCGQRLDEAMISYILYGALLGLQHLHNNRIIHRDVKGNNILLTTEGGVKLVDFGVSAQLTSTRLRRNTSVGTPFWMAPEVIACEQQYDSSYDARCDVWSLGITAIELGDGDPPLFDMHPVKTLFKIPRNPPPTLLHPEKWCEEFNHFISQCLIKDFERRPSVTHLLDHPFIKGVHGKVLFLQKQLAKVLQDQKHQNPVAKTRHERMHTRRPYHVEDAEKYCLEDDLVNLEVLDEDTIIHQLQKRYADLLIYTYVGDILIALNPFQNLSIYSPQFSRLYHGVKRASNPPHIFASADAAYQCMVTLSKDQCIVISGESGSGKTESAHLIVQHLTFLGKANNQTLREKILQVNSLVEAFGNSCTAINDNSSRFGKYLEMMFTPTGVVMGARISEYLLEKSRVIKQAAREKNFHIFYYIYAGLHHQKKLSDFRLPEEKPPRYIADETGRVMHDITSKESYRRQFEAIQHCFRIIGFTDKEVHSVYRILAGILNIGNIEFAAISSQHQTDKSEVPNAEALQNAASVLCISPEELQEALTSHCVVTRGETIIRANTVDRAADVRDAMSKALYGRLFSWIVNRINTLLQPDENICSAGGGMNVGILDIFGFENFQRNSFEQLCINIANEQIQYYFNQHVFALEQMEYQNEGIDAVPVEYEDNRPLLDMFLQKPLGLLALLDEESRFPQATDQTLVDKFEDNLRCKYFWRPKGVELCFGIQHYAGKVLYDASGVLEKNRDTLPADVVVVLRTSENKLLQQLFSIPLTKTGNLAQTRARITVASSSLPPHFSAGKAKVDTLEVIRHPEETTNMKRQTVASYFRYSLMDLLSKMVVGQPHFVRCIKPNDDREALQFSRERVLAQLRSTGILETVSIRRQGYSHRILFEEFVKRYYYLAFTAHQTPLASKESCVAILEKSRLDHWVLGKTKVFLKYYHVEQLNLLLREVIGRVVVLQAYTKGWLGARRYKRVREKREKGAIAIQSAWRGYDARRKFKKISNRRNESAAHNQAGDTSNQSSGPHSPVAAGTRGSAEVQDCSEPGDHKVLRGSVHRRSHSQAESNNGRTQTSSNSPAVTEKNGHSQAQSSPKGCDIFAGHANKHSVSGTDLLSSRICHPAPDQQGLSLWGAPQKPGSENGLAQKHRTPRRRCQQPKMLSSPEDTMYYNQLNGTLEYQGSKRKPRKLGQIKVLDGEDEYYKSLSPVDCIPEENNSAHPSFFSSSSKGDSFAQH

[3] = biological target: T3, PIP4K2α(h) (Homo sapiens, UniProt P48426)
T3 construct: purchased Eurofins (KinaseProfiler)
T3 sequence (P48426 1-406): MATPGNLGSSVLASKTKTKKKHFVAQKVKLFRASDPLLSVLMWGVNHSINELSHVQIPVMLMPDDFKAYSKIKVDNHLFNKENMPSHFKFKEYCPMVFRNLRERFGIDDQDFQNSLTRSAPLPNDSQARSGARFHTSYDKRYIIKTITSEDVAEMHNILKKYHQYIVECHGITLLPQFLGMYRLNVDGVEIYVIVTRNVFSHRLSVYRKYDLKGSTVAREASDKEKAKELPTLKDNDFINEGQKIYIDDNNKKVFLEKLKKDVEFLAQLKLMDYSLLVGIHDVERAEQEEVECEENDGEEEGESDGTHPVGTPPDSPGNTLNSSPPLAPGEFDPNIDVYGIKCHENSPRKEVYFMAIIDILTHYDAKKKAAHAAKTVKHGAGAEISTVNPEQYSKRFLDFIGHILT

COc1cc(OC)c(Cl)c(-c2ccc3c(NC(=O)c4ccc(N5CCNC(C)(C)C5)cc4)n[nH]c3n2)c1Cl [3D185]
inhibition at 0.01 µM ([1]; 10 nM): 6% | inhibition at 0.1 µM ([1]; 100 nM): 3% | inhibition at 1 µM ([1]; 1000 nM): 3% | inhibition at 0.01 µM ([2]; 10 nM): -4% | inhibition at 0.1 µM ([2]; 100 nM): 0% | inhibition at 1 µM ([2]; 1000 nM): 7% | inhibition at 0.01 µM ([3]; 10 nM): 1% | inhibition at 0.1 µM ([3]; 100 nM): -2% | inhibition at 1 µM ([3]; 1000 nM): 4%
